Test results taken from ChEMBL document CHEMBL3045439, “Isoforms of the heteropteran Nezara viridula ecdysone receptor: protein characterisation, RH5992 insecticide binding and homology modelling” (Pest Manag Sci, 2011).

Tests used:
Type in all cases: protein-complex assay
Ecdysone receptor [1] = target: T1, Ecdysone receptor (Choristoneura fumiferana, UniProt O76202+O77240); experiment: Binding affinity to Choristoneura fumiferana EcR
T1 sequence (O77240 whole entry): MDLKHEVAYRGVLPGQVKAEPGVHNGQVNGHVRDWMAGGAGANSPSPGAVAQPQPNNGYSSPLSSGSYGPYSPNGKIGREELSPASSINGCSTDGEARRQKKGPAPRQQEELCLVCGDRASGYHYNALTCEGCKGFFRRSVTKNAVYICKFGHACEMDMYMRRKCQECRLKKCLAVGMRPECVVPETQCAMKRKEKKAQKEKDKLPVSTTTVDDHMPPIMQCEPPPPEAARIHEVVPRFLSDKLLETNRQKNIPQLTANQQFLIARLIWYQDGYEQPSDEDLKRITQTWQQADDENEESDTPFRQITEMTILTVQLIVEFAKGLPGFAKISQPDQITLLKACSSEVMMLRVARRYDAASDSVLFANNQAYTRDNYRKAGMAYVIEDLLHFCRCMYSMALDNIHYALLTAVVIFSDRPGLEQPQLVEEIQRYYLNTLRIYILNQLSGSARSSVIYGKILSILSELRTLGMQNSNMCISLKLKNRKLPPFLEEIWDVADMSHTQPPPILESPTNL
T1 sequence (O76202 whole entry): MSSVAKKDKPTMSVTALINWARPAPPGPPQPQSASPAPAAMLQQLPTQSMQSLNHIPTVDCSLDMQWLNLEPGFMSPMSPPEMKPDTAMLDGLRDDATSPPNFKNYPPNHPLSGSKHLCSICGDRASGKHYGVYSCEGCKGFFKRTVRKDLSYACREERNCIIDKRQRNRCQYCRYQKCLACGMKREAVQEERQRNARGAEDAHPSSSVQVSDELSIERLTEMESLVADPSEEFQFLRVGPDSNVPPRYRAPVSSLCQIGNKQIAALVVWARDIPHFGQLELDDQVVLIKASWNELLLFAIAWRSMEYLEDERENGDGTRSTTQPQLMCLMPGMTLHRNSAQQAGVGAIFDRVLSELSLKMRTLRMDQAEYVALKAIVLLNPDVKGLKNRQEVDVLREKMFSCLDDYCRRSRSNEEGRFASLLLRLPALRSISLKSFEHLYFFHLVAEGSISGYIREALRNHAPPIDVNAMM

Ecdysone receptor [2] = target: T2, Ecdysone receptor (Myzus persicae, UniProt A3EZJ9+A3EZK0); experiment: Binding affinity to Myzus persicae EcR (green peach aphid)
T2 sequence (A3EZJ9 whole entry): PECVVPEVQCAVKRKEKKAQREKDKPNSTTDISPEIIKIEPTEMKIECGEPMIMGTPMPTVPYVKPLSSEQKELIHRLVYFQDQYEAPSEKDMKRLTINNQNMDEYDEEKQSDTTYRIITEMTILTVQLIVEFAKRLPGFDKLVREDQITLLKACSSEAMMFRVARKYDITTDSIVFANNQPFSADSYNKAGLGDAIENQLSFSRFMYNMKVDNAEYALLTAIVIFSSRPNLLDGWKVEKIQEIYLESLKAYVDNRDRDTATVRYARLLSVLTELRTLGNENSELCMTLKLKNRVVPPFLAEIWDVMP
T2 sequence (A3EZK0 whole entry): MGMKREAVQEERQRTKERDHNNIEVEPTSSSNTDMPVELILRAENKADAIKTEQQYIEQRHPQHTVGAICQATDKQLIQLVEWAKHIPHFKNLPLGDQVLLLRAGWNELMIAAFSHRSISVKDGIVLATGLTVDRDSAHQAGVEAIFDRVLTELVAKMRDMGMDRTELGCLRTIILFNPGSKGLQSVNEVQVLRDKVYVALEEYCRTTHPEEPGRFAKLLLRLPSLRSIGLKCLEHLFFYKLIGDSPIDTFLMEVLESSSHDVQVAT

Ecdysone receptor [3] = target: T3, Ecdysone receptor (Nezara viridula, UniProt E5L6Y0+E5L6Y1); experiment: Binding affinity to Nezara viridula EcR10
T3 sequence (E5L6Y1 whole entry): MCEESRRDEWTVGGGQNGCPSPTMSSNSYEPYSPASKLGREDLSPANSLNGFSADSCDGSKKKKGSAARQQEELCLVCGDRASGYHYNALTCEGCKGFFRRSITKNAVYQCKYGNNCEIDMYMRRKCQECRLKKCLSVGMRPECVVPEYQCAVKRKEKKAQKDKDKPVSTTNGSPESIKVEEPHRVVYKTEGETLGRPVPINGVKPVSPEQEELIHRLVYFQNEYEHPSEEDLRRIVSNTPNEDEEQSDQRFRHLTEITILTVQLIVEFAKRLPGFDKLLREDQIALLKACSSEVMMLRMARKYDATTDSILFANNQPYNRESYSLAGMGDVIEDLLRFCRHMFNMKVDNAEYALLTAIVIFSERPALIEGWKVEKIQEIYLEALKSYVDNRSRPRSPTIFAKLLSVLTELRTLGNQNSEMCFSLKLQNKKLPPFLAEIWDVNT
T3 sequence (E5L6Y0 whole entry): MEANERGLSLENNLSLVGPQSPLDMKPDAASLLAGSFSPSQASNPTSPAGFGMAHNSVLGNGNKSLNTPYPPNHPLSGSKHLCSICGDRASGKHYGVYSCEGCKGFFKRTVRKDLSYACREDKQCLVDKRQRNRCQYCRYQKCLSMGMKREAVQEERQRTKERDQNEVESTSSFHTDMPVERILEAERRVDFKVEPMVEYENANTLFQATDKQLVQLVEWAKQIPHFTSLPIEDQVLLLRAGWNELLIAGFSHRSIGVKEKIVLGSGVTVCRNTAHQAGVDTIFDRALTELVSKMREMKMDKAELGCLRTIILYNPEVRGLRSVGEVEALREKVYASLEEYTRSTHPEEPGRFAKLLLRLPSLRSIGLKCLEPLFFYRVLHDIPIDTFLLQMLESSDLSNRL

## CCc1ccc(C(=O)NN(C(=O)c2cc(C)cc(C)c2)C(C)(C)C)cc1 [TEBUFENOZIDE]
Ecdysone receptor [1]
  Ki: 0.000501 µM
Ecdysone receptor [2]
  Ki: > 126 µM
Ecdysone receptor [3]
  Ki: 20 µM
